Measurements: patent US20090137626A1, “Pharmaceutical Composition Containing PPARgamma Agonist” (priority 2005, published 2009)
Where a name gives a salt, the structure may show the parent alone.

Tested on: Male Zucker diabetic fatty (ZDF) rats
Test: Test Example 1: elimination of blood lactate after intravenous sodium lactate load (blood lactate AUC 0 to 60 minutes)
Assay type: in vivo
Conditions: sodium lactate 0.1 g/kg i.v., FIG. 1
Experimental: The animals of Group B and Group B+A were given free access for 1 week to Compound B mixed in powdered feed (FR-2 Powdered Laboratory Rodent Diet, Funabashi Farm Co., Ltd.) to a concentration of 0.001%. Animals of the control group and Group A were given free access to powdered feed for the same time period.
All animals were administered sodium lactate at 0.1 g/kg into the caudal vein one hour after oral administration. Blood samples were collected from the caudal vein immediately before and 5, 15, 30, 45 and 60 minutes after administration of sodium lactate, and blood lactate levels were measured using the Lactate Pro LT-1710 (Arkray, Inc.). The areas under the curve for blood lactate concentration (blood lactate AUC) were calculated from blood lactate levels from 0 to 60 minutes measured for each animal. A lower blood lactate AUC value indicates a more rapid elimination of lactate from the blood.

SMILES: COc1ccc2nc(COc3ccc(CC4SC(=O)NC4=O)cc3)n(C)c2c1 (centres unmarked) [Compound B, 5-{4-[(6-methoxy-1-methyl-1H-benzimidazol-2-yl)methoxy]benzyl}thiazolidine-2,4-dione hydrochloride]
- blood lactate AUC (Group B+A: Compound B 0.001% in feed for 1 week, then Compound A 300 mg/kg oral, relative to Group A (P<0.05, t-test)): decreased significantly
- blood lactate AUC (Group B: Compound B 0.001% in powdered feed for 1 week, alone, compared with control group (P<0.05, t-test)): decreased significantly
